Values after ≈ are worked out from the molar mass of the structure shown. Read-outs that look alike come from different tables or passages of the source.
How the values were obtained:
[1] = tested on: rat; experiment: Toxicity in the rat (oral), dose at which toxic symptoms occur; type: in vivo, rat (Sprague Dawley, male); settings: for Toxic dose (dose after whose administration the first toxic symptoms are observed): changes in the initial ECG, cyanosis or cramp
Protocol: (§1) Moreover, the antiarrhythmic activity of the novel substances is determined on male rats (Sprague Dawley, weight 200 to 230 g), after oral administration. 45 minutes after administration of the substance, the animals are anesthetized with sodium thiobutabarbital (100 mg/kg, administered intraperitoneally). Aconitine is used as the arrhythmogenic substance, and is infused intravenously at a rate of 0.005 mg/kg per min, 60 minutes after administration of the test substance. […] The dose which prolongs the infusion time by 50%, i.e. the ED 50%, is determined from the linear relationship between log dose (mg/kg) of the test substance and the relative prolongation of the aconitine infusion time (%).
(§2) Further, the dose at which toxic symptoms (changes in the initial ECG, cyanosis or cramp) occur is determined. The quotient of the acute toxic dose and the antiarrhythmic ED 50% is therefore determined as a measure of the toleration.

[2] = as above; type: in vivo, rat (Sprague Dawley, male); settings: in vivo, read-out: Q: quotient of the acute toxic dose and the antiarrhythmic ED 50%
Protocol: as §1, §2

[3] = tested on: aconitine-induced arrhythmia in rats; experiment: Antiarrhythmic effect on aconitine-induced arrhythmia in the rat (oral); type: in vivo, rat (Sprague Dawley, male); settings: for ED50: Rattus norvegicus, po, 1 h, read-out: Effective dose EC 50% (dose which prolongs the aconitine infusion time by 50%); for Effective dose R.A. (relative activity): rat, reference substance B = 1.00
Protocol: as §1

[4] = tested on: isolated guinea pig atrium; experiment: Isolated guinea pig left atria: decrease in force of contraction (negatively inotropic effect); parameters: species or system guinea pig (Pirbright white, male); settings: for EC25: Cavia porcellus, isolated left atria, pH 7.4, 32° C., read-out: Force of contraction EC 25% (concentration which causes a 25% decrease in the force of contraction); for Q: quotient EC 25% (decrease in force of contraction)/EC 50% (decrease in maximum driving rate): isolated guinea pig atrium; for Force of contraction R.A. (relative activity): reference substance B = 1.00
Protocol: (§3) The antiarrhythmic activity of the compound according to the invention is determined on isolated left atria of male guinea pigs (Pirbright white, weight 350 to 450 g). Atria suspended in an organ bath (volume 125 ml) containing carbogen (95% O2 /5% CO2)-saturated Tyrode's solution (pH 7.4, 32° C.) are prestressed with 1.0 g and are driven by square wave pulses of 1 Hz base rhythm and double stimulation threshold values (rheo base: 0.2 to 1.4 V, chronaxia: 0.3 to 0.5 msec). As a criterion of the antiarrhythmic activity, the frequency (in Hz) at which the atria are just still able to follow the sequence of pulses (the maximum driving rate) is determined by automatic continuous increase in frequency. The concentration which produces a 50% decrease in maximum driving rate, i.e. the EC 50%, is calculated from the linear relationship between log concentration (mg/1) of the active substance and relative decrease in maximum driving rate (Δ%).
Furthermore, the concentration which produces a 25% decrease in contraction amplitude, i.e. the EC 25%, is determined, as a measure of the negatively inotropic effect, from the linear relationship between log concentration (mg/1) and relative change in contraction amplitude (Δ%).

[5] = tested on: isolated guinea pig atrium; experiment: Isolated guinea pig left atria: decrease in maximum driving rate (antiarrhythmic activity); parameters: species or system guinea pig (Pirbright white, male); settings: for EC50: Cavia porcellus, isolated left atria, pH 7.4, 32° C., read-out: Maximum driving rate EC 50% (concentration which causes a 50% decrease in the maximum driving rate); for Maximum driving rate R.A. (relative activity): reference substance B = 1.00
Protocol: as §3

[6] = tested on: isolated strips of rat aorta; experiment: Constrictive effect on isolated strips of rat aorta; settings: for EC50: spiral strips of rat aorta, 37° C.
From the text: The novel compounds are further characterized by investigation whether, in addition to antiarrhythmic properties, stimulating effects on smooth muscle, which may lead to undesirable side effects (hypertension or stimulation of the uterus), are detectable.

[7] = tested on: blood pressure of unanesthetized dogs; experiment: Effect on the blood pressure of unanesthetized dogs (intravenous); type: in vivo, dog
Protocol: Moreover, the effect of the compound according to the invention on the systolic and diastolic blood pressure of unanesthetized dogs on intravenous administration is tested.

[8] = read-out: EC 50, constrictive effect (50% of the contraction obtained with noradrenalin 10^-6 mol/l)

| SMILES | Toxic dose (dose after whose administration the first toxic symptoms are observed) [1] [mg/kg] | selectivity ratio [2] | ED50 [3] [mg/kg] | Effective dose R.A. (relative activity) ([3]; oral) | EC25 [4] [µg/mL] | Q: quotient EC 25% (decrease in force of contraction)/EC 50% (decrease in maximum driving rate) [4] | Force of contraction R.A. (relative activity) [4] | EC50 [5] [µg/mL] | Maximum driving rate R.A. (relative activity) [5] | EC50 [6, 8] [µM] | effect on systolic and diastolic blood pressure (in words) [7] | Change in blood pressure, diastolic ([7]; 2.0 mg/kg) | Change in blood pressure, systolic ([7]; 2.0 mg/kg) | further results |
| --- | --- | --- | --- | --- | --- | --- | --- | --- | --- | --- | --- | --- | --- | --- |
| c1ccc(CN2CC3CC(C2)CN(CC(c2ccccc2)c2ccccc2)C3)cc1 [A, N-benzyl-N'-(2,2-diphenylethyl)-bispidine] | 100 | 7.7 | 13 | 1.75 | 4.92 (≈ 12.4 µM) | 3.44 | 4.43 | 1.43 (≈ 3.61 µM) | 3.93 |  |  |  |  |  |
| c1ccc(CN2CC3CC(C2)CN(Cc2ccccc2)C3)cc1 [B, N,N'-bisbenzylbispidine] | 100 | 4.4 | 22.7 |  | 21.8 (≈ 71.1 µM) | 3.68 |  | 5.92 (≈ 19.3 µM) |  | 3.8 | substantial increase in the systolic and in particular in the diastolic blood pressure | +59 Δmm Hg | +20 Δmm Hg |  |
| Nc1ccc(C(=O)N2CC3CC(CN(Cc4ccccc4)C3)C2)cc1 [C, N-(4-Aminobenzoyl)-N'-benzylbispidine] | 46.4 | 7.3 | 6.37 | 3.56 | 100 (≈ 298 µM) | 16.3 | 0.22 | 6.14 (≈ 18.3 µM) | 0.96 |  | no hypertensive effect | -2 Δmm Hg | -5 Δmm Hg | stimulating effects on smooth muscle (in words) ([6]; Table 3): lack of stimulating effects on smooth muscle; constrictive effect on the vascular muscle in vitro (in words) ([6]; even in very high concentrations (3.10^-4 mol/l)): no constrictive effect; EC50 ([6]; no effect up to 3.10^-4 mol/l, read-out: EC 50, constrictive effect (symbol for no effect)): > 300 µM; difference between toxic and antiarrhythmic doses, relative to reference substances ([1]; versus reference substances): about twice the difference or about the same difference, respectively; antiarrhythmic activity relative to reference substance A ([3]; aconitine-induced arrhythmia in rats, oral, versus A): twice; antiarrhythmic activity relative to reference substance B ([3]; aconitine-induced arrhythmia in rats, oral, versus B): about 4 times; antiarrhythmic activity relative to sparteine ([3]; aconitine-induced arrhythmia in rats, oral, versus sparteine): ~18 times; decrease in the force of contraction (in words) ([4]; isolated guinea pig atria): relatively small decrease in the force of contraction; antiarrhythmic effect on isolated guinea pig atria (in words) ([5]; decrease in maximum driving rate): powerful antiarrhythmic effect |
| C1CCN2C[C@@H]3C[C@@H](CN4CCCC[C@@H]34)[C@H]2C1 [Sparteine, sparteine] | 464 | 4.1 | 112 | 4.93 |  |  |  |  |  | 550 | substantial increase in the systolic and in particular in the diastolic blood pressure |  |  | Change in blood pressure, diastolic ([7]; 5.0 mg/kg): +40 Δmm Hg; Change in blood pressure, systolic ([7]; 5.0 mg/kg): +19 Δmm Hg |

Reference: patent US4556662A, “Bispidine derivatives and antiarrhythmic compositions” (BASF Aktiengesellschaft, priority 1981, dated 1985)
